Results taken from PubChem BioAssay AID624367 (Broad Institute, 2012).
Activity calls are given as the source filed them. No rule for the calls is given here.

Tested on: not listed separately
Assay: viability loss in LCL cells – cell-based, plate reader, dry powder, set 2, cytotoxicity control, dose response (AID 624367)
Settings: Lymphoblastoid cell line (LCL) cytotoxicity, plate reader; at 16 µM (top of the series)

| Compound | activity change, negative = cytotoxicity |
| --- | --- |
| C[C@@H]1CN([C@H](C)CO)C(=O)Cc2cc(NC(=O)Cc3ccccc3)ccc2O[C@@H]1CN(C)Cc1ccc(C(F)(F)F)cc1 | 4.6% (inactive) |

Same assay, conditions: Lymphoblastoid cell line (LCL) cytotoxicity, plate reader; at 30 µM (top of the series)

| Compound | activity change, negative = cytotoxicity |
| --- | --- |
| C[C@H](NC(=O)C[C@@H]1C=C[C@H](NC(=O)Cc2ccccn2)[C@H](CO)O1)c1ccccc1 | 6.34% (inactive) |

Same assay, conditions: Lymphoblastoid cell line (LCL) cytotoxicity, plate reader; at 35 µM (top of the series)

| Compound | activity change, negative = cytotoxicity |
| --- | --- |
| C[C@H]1CN([C@@H](C)CO)C(=O)Cc2cc(NC(=O)Cc3ccccc3)ccc2O[C@@H]1CN(C)Cc1ccc(C(F)(F)F)cc1 | -5.68% (inactive) |
| C[C@@H]1CN([C@@H](C)CO)C(=O)Cc2cc(NC(=O)Cc3ccccc3)ccc2O[C@@H]1CN(C)Cc1ccc(C(F)(F)F)cc1 | -0.78% (inactive) |
| O=C(Cc1ccccn1)NCC[C@H]1CC[C@@H](NC(=O)Nc2ccc(Cl)cc2)[C@H](CO)O1 | -1.08% (inactive) |
| Cc1noc(C)c1S(=O)(=O)Nc1ccc2c(c1)C(=O)N([C@H](C)CO)C[C@H](C)[C@H](CN(C)Cc1ccc(C(F)(F)F)cc1)OCCCC[C@@H](C)O2 | -2.12% (inactive) |
| O=C(C[C@H]1CC[C@@H]2[C@H](COC[C@H](O)CN2Cc2ccc(Oc3ccccc3)cc2)O1)N1CCc2ccccc2C1 | -13.9% (inactive) |
| Cc1noc(C)c1S(=O)(=O)Nc1ccc2c(c1)C(=O)N([C@H](C)CO)C[C@H](C)[C@H](CN(C)Cc1ccc(C(F)(F)F)cc1)OCCCC[C@H](C)O2 | -5.76% (inactive) |
| Cc1noc(C)c1S(=O)(=O)Nc1ccc2c(c1)C(=O)N([C@H](C)CO)C[C@@H](C)[C@H](CN(C)Cc1ccc(C(F)(F)F)cc1)OCCCC[C@H](C)O2 | -6.93% (inactive) |
| C[C@@H](NC(=O)C[C@H]1C[C@@H]2c3cc(NC(=O)c4cccnc4)ccc3O[C@@H]2[C@@H](CO)O1)c1ccccc1 | -0.579% (inactive) |
| C[C@H]1CN([C@@H](C)CO)C(=O)c2c(c3ccccc3n2C)-c2ccccc2CO[C@@H]1CN(C)C(=O)Nc1ccc(F)cc1 | 1.36% (inactive) |
| Cc1ccc(S(=O)(=O)N(C)C[C@H]2Oc3cc(C#Cc4ccncc4)ccc3S(=O)(=O)N([C@@H](C)CO)C[C@H]2C)cc1 | -6.9% (inactive) |
| CC(C)(C)[S@@](=O)N1Cc2cc(C(=O)NCc3ccccn3)nc(-c3cccc(-c4ccccc4F)c3)c2[C@H]1CCO | -1.27% (inactive) |
| O=C(Cc1ccccn1)NCC[C@H]1CC[C@H](NC(=O)Nc2ccc(Cl)cc2)[C@H](CO)O1 | 7.55% (inactive) |
| N#C[C@H]1[C@H](c2ccc(C#Cc3ccccc3F)cc2)[C@@H](CO)N1C(=O)c1cccnc1 | 3.23% (inactive) |
| COc1ccc(NC(=O)N(C)C[C@@H]2Oc3cc(C#CCC(C)C)ccc3S(=O)(=O)N([C@@H](C)CO)C[C@@H]2C)cc1 | -0.055% (inactive) |
| C[C@@H](NC(=O)C[C@@H]1C=C[C@@H](NC(=O)Cc2ccccn2)[C@@H](CO)O1)c1ccccc1 | -0.658% (inactive) |
| Cc1cc(C(=O)Nc2ccc3c(c2)C(=O)N(C)[C@@H]2CC[C@@H](CC(=O)NCc4ccc(-c5ccccc5)cc4)O[C@H]2CO3)no1 | -5.25% (inactive) |
| Cc1cc(C(=O)Nc2ccc3c(c2)C(=O)N(C)[C@H]2CC[C@@H](CC(=O)NCc4ccc(-c5ccccc5)cc4)O[C@H]2CO3)no1 | -17.8% (inactive) |
| CC(C)(C)[S@@](=O)N1Cc2cc(C(=O)NCc3ccccc3F)nc(-c3cccc(-c4ccncc4)c3)c2[C@H]1CCO | 0.812% (inactive) |
| COc1ccc(-c2cccc(-c3nc(C(=O)NCC(F)(F)F)cc4c3[C@H](CCO)N([S@@](=O)C(C)(C)C)C4)c2)cc1 | -13.3% (inactive) |
| C[C@@H]1CN([C@H](C)CO)S(=O)(=O)c2ccc(/C=C/c3ccccc3)cc2O[C@H]1CN(C)C(=O)NC1CCCCC1 | -0.754% (inactive) |
| COc1cccc(C#Cc2ccc([C@@H]3[C@@H](C#N)N(C(=O)c4ccccn4)[C@@H]3CO)cc2)c1 | 7.55% (inactive) |
| COc1ccccc1C(=O)Nc1ccc2c(c1)C(=O)N(C)[C@@H]1CC[C@H](CC(=O)NCCc3ccncc3)O[C@H]1CO2 | 0.764% (inactive) |
| COc1ccccc1C#Cc1ccc2c(c1)O[C@H](CN(C)Cc1cccnc1)[C@H](C)CN([C@H](C)CO)S2(=O)=O | -2.03% (inactive) |
| C[C@@H](NC(=O)C[C@H]1C=C[C@H](NC(=O)Cc2ccccn2)[C@H](CO)O1)c1ccccc1 | 1.04% (inactive) |

| Compound | activity change, negative = cytotoxicity |
| --- | --- |
| C[C@@H](NC(=O)C[C@H]1C=C[C@@H](NC(=O)Cc2ccccn2)[C@@H](CO)O1)c1ccccc1 | -7.23% (inactive) |
| C[C@H](NC(=O)C[C@H]1C=C[C@@H](NC(=O)Cc2ccccn2)[C@@H](CO)O1)c1ccccc1 | 6.04% (inactive) |
| O=C(C[C@@H]1CC[C@H]2[C@@H](COC[C@H](O)CN2Cc2ccc(Oc3ccccc3)cc2)O1)N1CCc2ccccc2C1 | -13.4% (inactive) |
| Cc1noc(C)c1S(=O)(=O)Nc1ccc2c(c1)C(=O)N([C@H](C)CO)C[C@@H](C)[C@@H](CN(C)Cc1ccc(C(F)(F)F)cc1)OCCCC[C@@H](C)O2 | 1.01% (inactive) |
| O=C(C[C@@H]1CC[C@@H]2[C@H](COC[C@@H](O)CN2Cc2ccc(Oc3ccccc3)cc2)O1)N1CCc2ccccc2C1 | -13.2% (inactive) |
| COc1cccc(C(=O)Nc2ccc3c(c2)C(=O)N(C)C[C@H](OC)[C@@H](C)CN(CCc2ccccc2)[C@@H](C)CO3)c1 | -13% (inactive) |
| CO[C@H](CN(C)S(=O)(=O)c1cccc(Cl)c1)[C@@H](C)CN([C@H](C)CO)S(=O)(=O)c1ccc(Cl)cc1 | -9.42% (inactive) |
| O=C(Cc1ccccn1)NCC[C@@H]1CC[C@@H](NC(=O)Nc2ccc(Cl)cc2)[C@@H](CO)O1 | 1.2% (inactive) |
| COc1ccccc1CNC(=O)C[C@H]1C[C@@H]2c3cc(NC(=O)CN(C)C)ccc3O[C@@H]2[C@@H](CO)O1 | 2.15% (inactive) |
| O=C(C[C@H]1C[C@@H]2c3cc(NC(=O)c4ccc5c(c4)OCO5)ccc3O[C@@H]2[C@@H](CO)O1)NCc1ccc(Oc2ccccc2)cc1 | -5.15% (inactive) |
| COc1ccccc1C#Cc1ccc2c(c1)O[C@H](CN(C)Cc1cccnc1)[C@H](C)CN([C@@H](C)CO)S2(=O)=O | -1.62% (inactive) |
| C[C@H](CO)N1C[C@H](C)[C@H](CN(C)Cc2ccc(C(F)(F)F)cc2)Oc2ccc(NC(=O)Cc3ccccc3)cc2CC1=O | 3.51% (inactive) |
| COc1cccc(S(=O)(=O)N(C)C[C@H]2Oc3cc(C4=CCCCC4)ccc3S(=O)(=O)N([C@H](C)CO)C[C@H]2C)c1 | -4.62% (inactive) |
| C[C@H](NC(=O)C[C@H]1C=C[C@@H](NC(=O)Cc2ccccn2)[C@H](CO)O1)c1ccccc1 | 9.63% (inactive) |
| COc1ccc(CNC(=O)c2cc3c(c(-c4cccc(-c5ccc(C#N)cc5)c4)n2)[C@@H](CCO)N([S@](=O)C(C)(C)C)C3)cc1 | -0.743% (inactive) |
| C[C@@H]1CN([C@@H](C)CO)C(=O)c2c(c3ccccc3n2C)-c2ccccc2CO[C@@H]1CN(C)C(=O)Nc1ccc(F)cc1 | -5.86% (inactive) |
| Cc1noc(C)c1S(=O)(=O)Nc1ccc2c(c1)C(=O)N([C@H](C)CO)C[C@H](C)[C@@H](CN(C)Cc1ccc(C(F)(F)F)cc1)OCCCC[C@H](C)O2 | -4.42% (inactive) |
| COc1cccc(S(=O)(=O)N(C)C[C@@H]2Oc3cc(C4=CCCCC4)ccc3S(=O)(=O)N([C@@H](C)CO)C[C@@H]2C)c1 | -5.63% (inactive) |
| C[C@H](NC(=O)C[C@@H]1C=C[C@@H](NC(=O)Cc2ccccn2)[C@@H](CO)O1)c1ccccc1 | -1.09% (inactive) |
| COc1cccc(S(=O)(=O)N(C)C[C@@H]2Oc3cc(C4=CCCCC4)ccc3S(=O)(=O)N([C@H](C)CO)C[C@H]2C)c1 | 7.75% (inactive) |
| COC(=O)C[C@@H]1C[C@@H]2c3cc(NC(=O)CN(C)C)ccc3O[C@@H]2[C@@H](CO)O1 | -2.96% (inactive) |
| C/C=C/c1cccc(-c2nc(C(=O)Nc3nccs3)cc3c2[C@@H](CCO)N(C(=O)NC(C)C)C3)c1 | 3.79% (inactive) |
| Cc1noc(C)c1S(=O)(=O)Nc1ccc2c(c1)C(=O)N([C@@H](C)CO)C[C@H](C)[C@@H](CN(C)Cc1ccc(C(F)(F)F)cc1)OCCCC[C@@H](C)O2 | -4.06% (inactive) |
| N#C[C@@H]1[C@H](c2ccc(C#Cc3ccccc3F)cc2)[C@@H](CO)N1C(=O)c1cccnc1 | -5.47% (inactive) |

Tested on: Lymphoblastoid cell line (LCL) cytotoxicity, plate reader
Assay: as above
Settings: not given

| Compound | AC35 [µM] |
| --- | --- |
| CN(C)c1ccc2c(c1)[C@@H]1C[C@H](CC(=O)NCc3ccc(Oc4ccccc4)cc3)O[C@@H](CO)[C@@H]1O2 | 30.4 |
| O=C(C[C@H]1C[C@H]2c3cc(NC(=O)c4ccc5c(c4)OCO5)ccc3O[C@H]2[C@H](CO)O1)NCc1ccc(Oc2ccccc2)cc1 | 33.8 |
| O=C(C[C@@H]1C[C@@H]2c3cc(NC(=O)c4ccc5c(c4)OCO5)ccc3O[C@@H]2[C@@H](CO)O1)NCc1ccc(Oc2ccccc2)cc1 | 16 |
| O=C(Nc1ccc(C(F)(F)F)cc1)Nc1ccc2c(c1)[C@@H]1C[C@H](CC(=O)N3CCc4ccccc4C3)O[C@H](CO)[C@@H]1O2 | 36.7 |
| O=C(C[C@H]1C[C@@H]2c3cc(NS(=O)(=O)c4ccc(F)cc4)ccc3O[C@@H]2[C@@H](CO)O1)NCc1ccc(Oc2ccccc2)cc1 | 34.7 |
| O=C(C[C@@H]1C[C@@H]2c3cc(NS(=O)(=O)c4ccc(F)cc4)ccc3O[C@@H]2[C@@H](CO)O1)NCc1ccc(Oc2ccccc2)cc1 | 22.2 |
